Values of other authors as cited in publication PMC8124668, “Preclinical Assessment Addressing Intravenous Administration of a [^68Ga]Ga-PSMA-617 Microemulsion: Acute In Vivo Toxicity, Tolerability, PET Imaging, and Biodistribution” (Molecules, 2021).

Test system: male rats
Set-up: method as in PMID 28283702
Conditions: once weekly IV bolus on days 1, 8, 15 and 22, at 400 mg/kg

SMILES: O=C(O)CCC(NC(=O)NC(CCCCNC(=O)C(Cc1ccc2ccccc2c1)NC(=O)C1CCC(CNC(=O)CN2CCN(CC(=O)O)CCN(CC(=O)O)CCN(CC(=O)O)CC2)CC1)C(=O)O)C(=O)O (stereo not shown) [PSMA-617, 2-[3-(1-Carboxy-5-{3-naphthalen-2-yl-2-[(4-{[2-(4,7,10-tris-carboxymethyl-1,4,7,10-tetraaza-cyclododec-1-yl)-acetylamino]-methyl}-cyclohexanecarbonyl)-amino]-propionylamino}-pentyl)-ureido]-pentanedioic acid]
- local or systemic intolerance reactions: No signs of local or systemic intolerance reactions
